Experimental data: US11066369B2, “N-(pyridin-2-yl)pyridine-sulfonamide derivatives and their use in the treatment of disease” (Novartis AG, priority 2016, dated 2021)
Structures can show the parent of a compound that is named as a salt. Where two headings read alike, the source gives them in different places.

Biological target: T1, horseradish peroxidase (HRP) tagged delF508-CFTR (Homo sapiens, UniProt P13569, DEL508-508)
T1 construct: expressed in transfected cells
Assay: Measurement of delF508-CFTR-HRP surface expression in CFBE41o- cells;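 for DelF508-CFTR-HRP Amax %: percent efficacy relative to reference corrector lumacaftor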
Format: cell-based
Conditions: for Emax: read-out: DelF508-CFTR-HRP Amax %
Method in brief: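 Surface-trafficked delF508-CFTR detected via extracellular HRP tag, read as luminescence from a membrane-impermeant substrate in CFBE41o- cells. Cells pre-induced 48h with 500 ng/mL doxycycline, then exposed 24h at 37° C to a 10-point, 3-fold dilution series from 10 μM (DMSO ≤0.5%). Triplicate dose-responses fitted logistically for EC50 after per-plate normalization; fold change versus reference compound.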

[1] = delF508-CFTR-HRP surface expression, CFBE41o- cells, read-out: DelF508-CFTR-HRP EC50
[2] = delF508-CFTR-HRP surface expression, CFBE41o- cells

T1 sequence (P13569 with tags, fused parts or gaps DEL508-508): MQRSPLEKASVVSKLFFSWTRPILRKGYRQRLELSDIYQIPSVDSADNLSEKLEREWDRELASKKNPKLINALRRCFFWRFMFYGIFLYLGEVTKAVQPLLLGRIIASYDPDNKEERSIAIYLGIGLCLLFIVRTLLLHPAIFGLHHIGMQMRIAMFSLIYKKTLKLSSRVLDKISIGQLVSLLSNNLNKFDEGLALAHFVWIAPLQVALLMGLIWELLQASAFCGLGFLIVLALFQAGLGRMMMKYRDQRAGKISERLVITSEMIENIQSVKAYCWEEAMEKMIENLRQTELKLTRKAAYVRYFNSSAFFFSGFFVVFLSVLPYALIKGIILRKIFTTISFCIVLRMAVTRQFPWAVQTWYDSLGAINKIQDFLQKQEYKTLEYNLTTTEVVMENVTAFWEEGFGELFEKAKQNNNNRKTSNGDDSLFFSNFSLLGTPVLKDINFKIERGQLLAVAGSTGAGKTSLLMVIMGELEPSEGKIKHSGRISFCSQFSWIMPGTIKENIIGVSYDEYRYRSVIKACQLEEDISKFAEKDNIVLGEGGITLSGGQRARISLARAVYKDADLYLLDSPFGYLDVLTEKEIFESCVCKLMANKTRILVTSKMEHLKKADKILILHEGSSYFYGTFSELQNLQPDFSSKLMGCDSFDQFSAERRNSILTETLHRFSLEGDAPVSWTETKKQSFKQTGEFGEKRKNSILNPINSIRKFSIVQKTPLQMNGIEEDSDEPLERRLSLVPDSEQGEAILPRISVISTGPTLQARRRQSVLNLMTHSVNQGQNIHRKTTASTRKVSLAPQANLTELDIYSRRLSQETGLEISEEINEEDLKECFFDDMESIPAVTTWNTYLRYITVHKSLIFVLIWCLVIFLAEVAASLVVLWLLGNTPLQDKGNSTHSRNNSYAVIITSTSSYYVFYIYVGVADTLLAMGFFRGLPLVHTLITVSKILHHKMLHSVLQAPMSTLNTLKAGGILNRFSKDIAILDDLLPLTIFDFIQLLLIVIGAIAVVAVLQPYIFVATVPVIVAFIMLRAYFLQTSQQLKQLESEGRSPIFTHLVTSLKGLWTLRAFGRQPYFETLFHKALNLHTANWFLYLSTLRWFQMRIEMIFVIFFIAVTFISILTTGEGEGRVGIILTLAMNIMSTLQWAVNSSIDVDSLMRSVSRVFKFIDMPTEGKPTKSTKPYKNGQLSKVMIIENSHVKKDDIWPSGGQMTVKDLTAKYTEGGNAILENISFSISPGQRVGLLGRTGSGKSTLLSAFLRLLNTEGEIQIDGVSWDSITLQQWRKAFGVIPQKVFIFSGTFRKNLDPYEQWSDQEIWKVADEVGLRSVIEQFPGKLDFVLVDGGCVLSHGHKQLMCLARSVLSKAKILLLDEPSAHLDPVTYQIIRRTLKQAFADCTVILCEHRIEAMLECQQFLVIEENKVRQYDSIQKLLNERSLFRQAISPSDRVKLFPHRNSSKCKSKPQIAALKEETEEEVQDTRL

SMILES | EC50 [1] [nM] | Emax [2] [%] | EC50 [nM]
CCOC(=O)C1(C)CCN(c2cccc(S(=O)(=O)Nc3ccc(C(F)(F)F)c(-c4c(C)cccc4C)n3)n2)CC1 [Example 266, ethyl 1-(6-{[6-(2,6-dimethylphenyl)-5-(trifluoromethyl)pyridin-2-yl]sulfamoyl}pyridin-2-yl)-4-methylpiperidine-4-carboxylate] | 1280 | – | –
COC(=O)C1(NC(=O)OC(C)(C)C)CCN(c2cccc(S(=O)(=O)Nc3ccc(Cl)c(-c4c(C)cccc4C)n3)n2)CC1 [Example 267, methyl 4-{[(tert-butoxy)carbonyl]amino}-1-(6-{[5-chloro-6-(2,6-dimethylphenyl)pyridin-2-yl]sulfamoyl}pyridin-2-yl)piperidine-4-carboxylate] | 1260 | 887 | –
Cc1cccc(C)c1-c1nc(NS(=O)(=O)c2cccc(N3CCC(NC(=O)OC(C)(C)C)(C(=O)O)CC3)n2)ccc1Cl [Example 268, 4-{[(tert-butoxy)carbonyl]amino}-1-(6-{[5-chloro-6-(2,6-dimethylphenyl)pyridin-2-yl]sulfamoyl}pyridin-2-yl)piperidine-4-carboxylic Acid] | 3730 | 103 | –
Cc1cccc(C)c1-c1nc(NS(=O)(=O)c2cccc(N3CCC(N)(C(=O)O)CC3)n2)ccc1Cl [Example 269, 4-amino-1-(6-{[5-chloro-6-(2,6-dimethylphenyl)pyridin-2-yl]sulfamoyl}pyridin-2-yl)piperidine-4-carboxylic Acid Hydrochloride] | 4000 | 105 | –
Cc1ccc(F)cc1-c1nc(NS(=O)(=O)c2cccc(N3CCN(C(=O)OC(C)(C)C)CC3)n2)ccc1Cl [Example 298, tert-butyl 4-(6-(N-(5-chloro-6-(5-fluoro-2-methylphenyl)pyridin-2-yl)sulfamoyl)pyridin-2-yl)piperazine-1-carboxylate] | 1490 | 677 | –
Cc1ccccc1-c1nc(NS(=O)(=O)c2cccc(N3CCC34CN(C(=O)OC(C)(C)C)C4)n2)ccc1C(F)(F)F [Example 301, tert-butyl 1-(6-(N-(6-(o-tolyl)-5-(trifluoromethyl)pyridin-2-yl)sulfamoyl)pyridin-2-yl)-1,6-diazaspiro[3.3]heptane-6-carboxylate] | 670 | 546 | –
Cc1ccc(F)cc1-c1nc(NS(=O)(=O)c2cccc(N3CCC34CNC4)n2)ccc1Cl [Example 310, N-(5-chloro-6-(5-fluoro-2-methylphenyl)pyridin-2-yl)-6-(1,6-diazaspiro[3.3]heptan-1-yl)pyridine-2-sulfonamide] | 4980 | 137 | –
Cc1ccccc1-c1nc(NS(=O)(=O)c2cccc(N3CCC34CNC4)n2)ccc1C(F)(F)F [Example 313, 6-(1,6-diazaspiro[3.3]heptan-1-yl)-N-(6-(o-tolyl)-5-(trifluoromethyl)pyridin-2-yl)pyridine-2-sulfonamide] | 4570 | 128 | –
Cc1ccc(C#N)cc1-c1nc(NS(=O)(=O)c2ccnc(N3CC(C)(O)C3)c2)ccc1C(F)(F)F [Example 317, N-(6-(5-cyano-2-methylphenyl)-5-(trifluoromethyl)pyridin-2-yl)-2-(3-hydroxy-3-methylazetidin-1-yl)pyridine-4-sulfonamide] | 4670 | 185 | –
Cc1ccc(F)cc1-c1nc(NS(=O)(=O)c2ccnc(N3CCNCC3)c2)ccc1Cl [Example 327, N-(5-chloro-6-(5-fluoro-2-methylphenyl)pyridin-2-yl)-2-(piperazin-1-yl)pyridine-4-sulfonamide] | 4260 | 92.5 | –
CCOc1ccccc1-c1nc(NS(=O)(=O)c2cccc(N3CCC[C@@](C)(C(=O)O)C3)n2)ccc1C(F)(F)F [Example 328, (R)-1-(6-(N-(6-(2-ethoxyphenyl)-5-(trifluoromethyl)pyridin-2-yl)sulfamoyl)pyridin-2-yl)-3-methylpiperidine-3-carboxylic Acid] | 1790 | – | –
CCCOc1ccccc1-c1nc(NS(=O)(=O)c2cccc(N3CCC[C@@](C)(C(=O)O)C3)n2)ccc1C(F)(F)F [Example 329, (R)-3-methyl-1-(6-(N-(6-(2-propoxyphenyl)-5-(trifluoromethyl)pyridin-2-yl)sulfamoyl)pyridin-2-yl)piperidine-3-carboxylic Acid] | 930 | – | –
Cc1ccccc1-c1nc(NS(=O)(=O)c2cccc(N3CC(C(=O)O)C3)n2)ccc1C(F)(F)F [Example 330, 1-(6-(N-(6-(o-tolyl)-5-(trifluoromethyl)pyridin-2-yl)sulfamoyl)pyridin-2-yl)azetidine-3-carboxylic Acid] | 2300 | 9.1 | –
Cc1ccccc1-c1nc(NS(=O)(=O)c2cccc(N3CCN(C(=O)OC(C)(C)C)[C@H](C(=O)O)C3)n2)ccc1C(F)(F)F [Example 334, (2S)-1-[(tert-butoxy)carbonyl]-4-(6-{[6-(2-methylphenyl)-5-(trifluoromethyl)pyridin-2-yl]sulfamoyl}pyridin-2-yl)piperazine-2-carboxylic Acid] | 2470 | 164 | –
Cc1ccccc1-c1nc(NS(=O)(=O)c2cccc(N3CCN[C@H](C(=O)O)C3)n2)ccc1C(F)(F)F [Example 335, (2S)-4-(6-{[6-(2-methylphenyl)-5-(trifluoromethyl)pyridin-2-yl]sulfamoyl}pyridin-2-yl)piperazine-2-carboxylic Acid] | 3140 | 71.3 | –
Cc1ccccc1-c1nc(NS(=O)(=O)c2cccc(N3CCC(C)(C(=O)O)C3)n2)ccc1C(F)(F)F (stereo not drawn) [Example 336, 3-methyl-1-(6-{[6-(2-methylphenyl)-5-(trifluoromethyl)pyridin-2-yl]sulfamoyl}pyridin-2-yl)pyrrolidine-3-carboxylic Acid] | 1760 | 266 | –
Cc1ccccc1-c1nc(NS(=O)(=O)c2cccc(N3CCN(C(=O)OC(C)(C)C)[C@@H](C(=O)O)C3)n2)ccc1C(F)(F)F [Example 338, (2R)-1-[(tert-butoxy)carbonyl]-4-(6-{[6-(2-methylphenyl)-5-(trifluoromethyl)pyridin-2-yl]sulfamoyl}pyridin-2-yl)piperazine-2-carboxylic Acid] | 2810 | 542 | –
Cc1ccccc1-c1nc(NS(=O)(=O)c2cccc(N3CCO[C@@H](C(=O)O)C3)n2)ccc1C(F)(F)F [Example 339, (2R)-4-(6-{[6-(2-methylphenyl)-5-(trifluoromethyl)pyridin-2-yl]sulfamoyl}pyridin-2-yl)morpholine-2-carboxylic Acid] | 2310 | 122 | –
Cc1ccccc1-c1nc(NS(=O)(=O)c2cccc(N3C[C@H]4C[C@H]4[C@H]3C(=O)O)n2)ccc1C(F)(F)F [Example 340, (1R,2S,5S)-3-(6-{[6-(2-methylphenyl)-5-(trifluoromethyl)pyridin-2-yl]sulfamoyl}pyridin-2-yl)-3-azabicyclo[3.1.0]hexane-2-carboxylic Acid] | 2450 | 278 | –
Cc1ccccc1-c1nc(NS(=O)(=O)c2cccc(N3CCN[C@@H](C(=O)O)C3)n2)ccc1C(F)(F)F [Example 341, (2R)-4-(6-{[6-(2-methylphenyl)-5-(trifluoromethyl)pyridin-2-yl]sulfamoyl}pyridin-2-yl)piperazine-2-carboxylic Acid] | 3030 | 89.2 | –
Cc1ccccc1-c1nc(NS(=O)(=O)c2cccc(N3C4CCC3CC(C(=O)O)C4)n2)ccc1C(F)(F)F (stereo not drawn) [Example 346, 8-(6-{[6-(2-methylphenyl)-5-(trifluoromethyl)pyridin-2-yl]sulfamoyl}pyridin-2-yl)-8-azabicyclo[3.2.1]octane-3-carboxylic Acid] | – | 297 | 1750
Cc1ccccc1-c1nc(NS(=O)(=O)c2cccc(N3CCN(C(=O)OC(C)(C)C)C[C@@H]3C(=O)O)n2)ccc1C(F)(F)F [Example 347, (2R)-4-[(tert-butoxy)carbonyl]-1-(6-{[6-(2-methylphenyl)-5-(trifluoromethyl)pyridin-2-yl]sulfamoyl}pyridin-2-yl)piperazine-2-carboxylic Acid] | 1890 | 245 | –
Cc1ccccc1-c1nc(NS(=O)(=O)c2cccc(N3CC[C@H](C(=O)O)C3)n2)ccc1C(F)(F)F [Example 348, (3S)-1-(6-{[6-(2-methylphenyl)-5-(trifluoromethyl)pyridin-2-yl]sulfamoyl}pyridin-2-yl)pyrrolidine-3-carboxylic Acid] | 2830 | 145 | –
Cc1ccccc1-c1nc(NS(=O)(=O)c2cccc(N3CC[C@@H](C(=O)O)C3)n2)ccc1C(F)(F)F [Example 349, (3R)-1-(6-{[6-(2-methylphenyl)-5-(trifluoromethyl)pyridin-2-yl]sulfamoyl}pyridin-2-yl)pyrrolidine-3-carboxylic Acid] | 1640 | 252 | –
Cc1ccccc1-c1nc(NS(=O)(=O)c2cccc(N3CCN(C(=O)OC(C)(C)C)C[C@H]3C(=O)O)n2)ccc1C(F)(F)F [Example 350, (2S)-4-[(tert-butoxy)carbonyl]-1-(6-{[6-(2-methylphenyl)-5-(trifluoromethyl)pyridin-2-yl]sulfamoyl}pyridin-2-yl)piperazine-2-carboxylic Acid] | 1900 | 232 | –
Cc1ccccc1-c1nc(NS(=O)(=O)c2cccc(N3CCNC[C@@H]3C(=O)O)n2)ccc1C(F)(F)F [Example 353, (2R)-1-(6-{[6-(2-methylphenyl)-5-(trifluoromethyl)pyridin-2-yl]sulfamoyl}pyridin-2-yl)piperazine-2-carboxylic Acid] | 2800 | 118 | –
Cc1ccccc1-c1nc(NS(=O)(=O)c2cccc(N3CCNC[C@H]3C(=O)O)n2)ccc1C(F)(F)F [Example 354, (2S)-1-(6-{[6-(2-methylphenyl)-5-(trifluoromethyl)pyridin-2-yl]sulfamoyl}pyridin-2-yl)piperazine-2-carboxylic Acid] | 2740 | 154 | –
